# Test results reported in paper PMC7956625, “Optimization and Anti-Cancer Properties of Fluoromethylketones as Covalent Inhibitors for Ubiquitin C-Terminal Hydrolase L1” (Molecules, 2021).
# “Also recorded” adds a separate entry of the source. Where two headings read alike, the source gives them in different places. Where a SMILES comes first, the peptide text is derived from it. The star is where a group is joined. Cbz = O=C(OCc1ccccc1)*; CH2F = FC*
# Legend:
# SW1271 cells [1] = assay: SW1271 cell viability assay; assay type: cell-based; details: 100 µM, 24 h
# Description: UCHL1 is a key promoter of cell invasion and metastasis in small cell lung cancer but not necessarily required for cell viability or proliferation. Thus, we chose to assess the efficacy of targeting UCHL1 using the SW1271 small cell lung cancer cell line. […] The Ub-ABP assay was used to confirm on target engagement of UCHL1 within these cells.
# Luciferase-constructed cancer cells were seeded in 96-well plates at 10,000 cells/well with the compounds at the indicated concentrations. DMSO was used as vehicle control. Luminescence readings were acquired after adding 1% D-luciferin (GoldBio, St. Louis, MO, USA) after 24 h. Cell viability was determined by the ratio of luminescence reading compared to the one at 0 h, and normalized to vehicle control.
# SW1271 cells [2] = assay: Scratch wound healing cell migration assay; assay type: cell-based; details: 100 µM, 24 h
# Description: The same experiments were performed on wild type SW1271 cells treated with fluoromethylketone analogs. Molecules 1 and 34 were first assessed for their effect on cell viability at 100 µM to determine if any observed reduction in cell viability may influence the migration assays (Figure 9E). […] Due to the slow reactive nature of the inhibitor and the modest potency the anti-migratory efficacy of these analogs may be improved with longer duration of treatment or increasing the frequency of treatment. Further studies are underway to elucidate the role UCHL1 plays in the migratory cellular pathways using both genetic depletion and inhibitor approaches.
# Wild-type or shRNA treated UCHL1 knockdown SW1271 cells were seeded in 12-well plates at 1 million cells/well. The cells were cultured overnight to grow as a confluent single layer. The cross-style wounds were created using pipet tips to scratch on the single layer of cells. The compounds were prepared in full growth media at the desired concentrations and added after the wounds were created. DMSO was used as the vehicle control. Photos of the wounds were captured immediately after adding treatments at 0 h. Photos of the wounds were captured at 0 and 24 h. The areas of cross-style wounds were quantified using Image J 1.52a software. The migration rate (%) was defined as the percentage of area at each timepoint compared to the one at 0 h.
# UCHL1 [3] = molecular target: T1, UCHL1 (Homo sapiens, UniProt P09936); assay: Fluorescence-based Ub-Rho deubiquitinase activity assay; assay type: biochemical; design: made in house; details: for IC50: 3 h of preincubation with UCHL1, technical triplicate, averages
# T1 sequence (P09936 1-223): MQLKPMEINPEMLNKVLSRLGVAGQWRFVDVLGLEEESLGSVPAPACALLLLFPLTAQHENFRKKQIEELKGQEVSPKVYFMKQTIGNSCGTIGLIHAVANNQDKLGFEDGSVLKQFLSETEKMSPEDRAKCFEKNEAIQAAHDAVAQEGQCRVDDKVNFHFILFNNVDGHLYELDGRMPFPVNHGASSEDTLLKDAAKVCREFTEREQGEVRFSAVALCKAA
# Description: Thus, a 3-h preincubation period was selected for the structure-activity relationship (SAR) comparison of all analogs to ensure full reaction time and for consistent comparison of activity against UCHL1 within the scaffold. […] A 10 mM stock solution was made for each inhibitor in DMSO, then a dilution of 600 µM in reaction buffer was made followed eight by 1:1 serial dilutions. […] These were allowed to incubate, while sealed, for the 3 h at room temperature. […] The % activity was plotted as a function of inhibitor concentration and the data was fitted with non-linear regression analysis to calculate the IC50 values. Errors are reported as the 95% confidence interval calculated from experiments collected in technical triplicate.
# UCHL1 [4] = molecular target: T1, UCHL1; assay: Time-dependent inhibitor analysis (kinact/KI); assay type: biochemical; design: made in house
# Description: Irreversible covalent inhibitors may be further characterized by determining the reversible binding constant (KI) as well as the rate of the covalent bond formation under saturating conditions (kinact). By determining the IC50 over the course of various timepoints, the pseudo first-order rate constant (kobs) could be calculated. […] The % activity of each inhibitor concentration was the plotted vs. time of pre-incubation and the slope of this plot is the pseudo first-order rate constant (kobs) for inhibition at each concentration. The kobs was plotted as a function of inhibitor concentration and then fit to the equation Y = kinactX/(KI + X) to calculate kinact, KI and kinact/KI as described by Resnick et al..
# UCHL3 = molecular target: T2, UCHL3 (Homo sapiens, UniProt P15374); assay: Fluorescence-based Ub-Rho deubiquitinase activity assay; assay type: biochemical; design: His (N); made in house; details: top concentration of 200 µM; Figure S1
# T2 sequence (P15374 1-230): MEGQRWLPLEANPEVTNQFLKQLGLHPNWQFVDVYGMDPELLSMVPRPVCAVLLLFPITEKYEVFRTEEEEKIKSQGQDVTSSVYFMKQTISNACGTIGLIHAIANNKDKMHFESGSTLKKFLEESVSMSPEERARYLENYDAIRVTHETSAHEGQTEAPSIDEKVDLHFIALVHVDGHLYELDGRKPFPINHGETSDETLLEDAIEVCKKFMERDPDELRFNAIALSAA
# Description: The in vitro inhibition of UCHL1 was determined by monitoring the cleavage of rhodamine 110 from substrate Rhodamine110-ubiquitin (Ub-Rho). […]. Thus, a 3-h preincubation period was selected for the structure-activity relationship (SAR) comparison of all analogs to ensure full reaction time and for consistent comparison of activity against UCHL1 within the scaffold. […]. The assay was performed in black 384-well plates (Catalog #12566624, Fisher, Waltham, MA, USA). DUB stock solutions were diluted in reaction buffer (50 mm Tris pH 7.6, 0.5 mm EDTA, 5 mm DTT, 0.1 % (w/v) BSA) to a concentration of 2.5 nM for UCHL1 or 0.025 nM for UCHL3. […] Plates were read immediately and fluorescence of cleaved Rhodamine 110 fluorophore was monitored at λex = 485 nm, λem = 535 nm continuously for 20 min on a Synergy Neo2 instrument (BioTek, Winooski, VT, USA) The raw data was loaded into GraphPad Prism 8 (GraphPad Software, San Diego, CA, USA; www.graphpad.com, accessed on 12 January 2021) and the slope of the linear portion of the fluorescence vs. time curves was calculation for each inhibitor concentration and % activity of the enzyme was determined compared to DMSO-treated controls. […] Errors are reported as the 95% confidence interval calculated from experiments collected in technical triplicate.
SMILES,SW1271 cell viability (SW1271 cells [1]),migration of SW1271 cells compared to DMSO control (SW1271 cells [2]),IC50 (UCHL1 [3]; IC50 (µM)) [µM],Ki (UCHL1 [4]) [µM],activity versus UCHL3 (UCHL3),IC50 (UCHL1 [3]; read-out: IC50) [µM],"fold more active than 1 versus UCHL1 (UCHL1 [3]; IC50 comparison, 3 h preincubation)",improvement of KI compared with 1 (UCHL1 [4]),kinact (UCHL1 [4]) [s⁻¹],kinact/KI (UCHL1 [4]) [M⁻¹ s⁻¹],"Ki (UCHL1 [4]; reversible binding constant of covalent inhibition, read-out: KI) [µM]"
"COC(=O)CC[C@H](NC(=O)[C@H](C)NC(=O)[C@@H](NC(=O)OCc1ccccc1)C(C)C)C(=O)CF [Cpd 1, benzyloxycarbonyl-Val-Ala-Glu(γ-methoxy)-fluoromethylketone] (Cbz-Val-Ala-Glu(OMe)-CH2F)",no effect on the cell viability; also recorded: neither 1 nor 34 displayed cytotoxic effect,the same reduction of migratory ability was not observed,24,60,no activity,,,,,,
C#Cc1ccc(COC(=O)N[C@H](C(=O)N[C@@H](C)C(=O)N[C@@H](CCC(=O)OC)C(=O)CF)C(C)C)cc1 [Cpd 34],no effect on the cell viability; also recorded: did not reduce SW1271 cell viability; also recorded: neither 1 nor 34 displayed cytotoxic effect; also recorded: does not exhibit any cellular toxicity,significantly reduced the ability of the cells to migrate; also recorded: anti-migratory properties,,,no observable activity,7.7,approximately 3 fold,greater than 3 fold,0.0136,810,16.8
